The text below walks through data of US10285936B2, “Injectable composition with aromatase inhibitor” (Laboratorios Farmacéuticos Rovi, S.A., priority 2010, dated 2019).

Read-outs that look alike come from different tables or passages of the source.

Series [1] is classed as in vitro ADME. The note with it: for stability of samples at room temperature: 6 h; for storage of processed samples without change in precision and accuracy: 24 h; for long term stability of samples: 132 days. The procedure:
For quantification of letrozole in dog and rabbit plasma a technique based on high performance liquid chromatography with fluorescence detector HPLC-FLD […] using a liquid-liquid extraction with […] as the organic solvent and resuspension for analysis in reverse phase with isocratic elution. Carvedilol was used as the internal standard and the process time was 8.5 min with a letrozole retention time of 7.8 min and applying wavelengths of 240 nm (λ excitation) and 315 nm (λ emission). The validated concentration interval was from 5 (LLOQ) to 500 ng/mL, that is with a lower limit of quantification or minimum quantifiable analyte concentration of the analytical technique of 5 ng/mL and a maximum validated concentration of 500 ng/mL. Calibration curves obtained were characterized with a correlation coefficient of over 0.99. Precision and intra-assay and inter-assay accuracy was less than 20% for the LLOQ and less than 15% for the other QCs, that is, of the other known concentration samples used as quality controls in conducting the analysis. The bioanalytical method was validated over three days and the results met the acceptance criteria described in the FDA guide: “Bioanalytical Method Validation”.
Processed samples could be stored in the sampler at 4° C. for 24 hours without noticing any change in the precision and accuracy of the analysis.

Series [2] is described as follows: Letrozole particle size distribution by laser diffraction (Malvern Mastersizer 2000). The series is classed as physicochemical. Conditions: % volume; suspended in water until obscuration of 9.41%. The procedure: If not otherwise specified, the particle size distribution was determined by light scattering technique using laser light diffraction in wet mode. It is known that particle size distribution results can be altered as a function of the material treatment such the use of high concentrate surfactant agents and/or strong force energies (vortex, sonication, etc). If nothing else is mentioned, drug is not treated and samples are prepared by direct addition to the tank under moderate stirring (2000-3500 rpm). The methodology applied on present invention to determine the drug particle size distribution mimics in a more faithfully way the behavior of the drug powder on the injectable formulation herein described than other methods which apply force energies to the sample and/or use high concentrate surfactant agents for preparing the samples in order to achieve high degrees of powder disaggregation that cannot be simulated during the manual reconstitution process of the formulation.
Letrozole particle size in formulation 2 was characterized by the technique of laser ray diffraction (Malvern Mastersizer 2000, suspended in water until obscuration of 9.41%) and had the following distribution (in % volume): d(0.1)=38.21 μm, d(0.5)=141.35 μm and d(0.9)=312.13 μm.

`N#Cc1ccc(C(c2ccc(C#N)cc2)n2cncn2)cc1` [Letrozole, 4,4′-(1,2,4-triazol-1-ylmethyl)dibenzonitrile]: in series [1] (dog), the “effect of cycles of freezing/thawing on stability” value was “did not affect the stability”; the “stability of samples at room temperature” value is recorded as “up to 6 hours”; the “storage of processed samples without change in precision and accuracy” value worked out at 24 h; the “long term stability of samples” value is reported as 132 days. Further, in series [1] (rabbit), the “effect of cycles of freezing/thawing on stability” value is listed as “did not affect the stability”; the “stability of samples at room temperature” value is “up to 6 hours”; the “storage of processed samples without change in precision and accuracy” value was 24 h; the “long term stability of samples” value stood at 132 days. In series [2], the “d(0.1)” value is 38.21 μm, the “d(0.5)” value is listed as 141.35 μm and the “d(0.9)” value was determined as 312.13 μm.
